Results as given in patent publication US20040254162A1, “Oxazolidinone derivatives as antimicrobials” (priority 2001, published 2004).
Converted amounts (≈) assume the structure as drawn. “And” between values parts separate entries of the source, which are not always exact repeats. Equal values may be shown once. Read-outs that look alike come from different tables or passages of the source.

Experiments:
[1] = test system: S. aureus; test: Summary of in vitro activity (MIC)
[2] = test system: S. aureus ATCC 25923; test: MIC, agar incorporation method; settings: agar incorporation
[3] = test system: S. pneum AB 34; test: MIC, agar incorporation method
[4] = test system: MRSA 15187; test: MIC, agar incorporation method
[5] = test system: MRSA 562; test: MIC, agar incorporation method
[6] = test system: Strep. pne. ATCC 6303; test: MIC, agar incorporation method
[7] = test system: Ent. faecalis ATCC 29212; test: MIC, agar incorporation method
[8] = test system: Strep. pyog. ATCC 19615; test: MIC, agar incorporation method
[9] = test system: MRSA 562; test: In vivo activity against MRSA 562 (ED50); set-up: species or system Methicillin Resistant Staphylococcus aureus; settings: MRSA 562 infection
[10] = Changes in MIC under different conditions: agar MIC; type: cell-based; settings: strain not given
[11] = test system: G +ve bacteria; test: Summary of in vitro activity (MIC)
[12] = test system: MRSA 33; test: MIC, agar incorporation method
[13] = test system: S. pneumoniae; test: Summary of in vitro activity (MIC)
[14] = test system: VRE 6A (Ent. faecium 6A); test: MIC, agar incorporation method
[15] = Changes in MIC under different conditions: broth MIC; type: cell-based; settings: strain not given
[16] = test system: E. faecalis; test: Summary of in vitro activity (MIC)
[17] = test system: anaerobic bacteria; test: Agar dilution method for anaerobic bacteria, summary; type: cell-based
[18] = test system: Prevotella (Bacteroides) disiens; test: Agar dilution MIC, anaerobes; type: cell-based
[19] = test system: Peptostreptococcus tetradius; test: Agar dilution MIC, anaerobes; type: cell-based
[20] = test system: MRSE 879 adherent bacteria; test: Sintered glass adherent bacteria model; settings: MRSE 879, sintered glass adherent bacteria model
[21] = test system: Clostridium difficile; test: Agar dilution MIC, anaerobes; type: cell-based; settings: for MIC Clostridium difficile: single isolates, anaerobic agar dilution
[22] = test system: Clostridium camis; test: Agar dilution MIC, anaerobes; type: cell-based
[23] = test system: Eubacterium leutum; test: Agar dilution MIC, anaerobes; type: cell-based
[24] = test system: Prevotella bivia; test: Agar dilution MIC, anaerobes; type: cell-based
[25] = test system: Prevotella intermedia; test: Agar dilution MIC, anaerobes; type: cell-based
[26] = test system: Porphyromonas gingivalis; test: Agar dilution MIC, anaerobes; type: cell-based
[27] = test system: Clostridium perfringens; test: microbe, parasite or virus in culture; type: cell-based
[28] = test system: Peptostreptococcus prevotii; test: Agar dilution MIC, anaerobes; type: cell-based
[29] = test system: Fusobacterium necrogenes; test: Agar dilution MIC, anaerobes; type: cell-based
[30] = test system: Fusobacterium nucleatum; test: Agar dilution MIC, anaerobes; type: cell-based; settings: Fusobacterium nucleatum, read-out: MIC Fusobacterium nucleatum
[31] = test system: Bacteroides fragilis; test: Agar dilution MIC, anaerobes; type: cell-based
[32] = test system: Fusobacterium montiferum; test: Agar dilution MIC, anaerobes; type: cell-based
[33] = test system: Prevotella melaninogenica; test: Agar dilution MIC, anaerobes; type: cell-based
[34] = test system: Fusobacterium varium; test: Agar dilution MIC, anaerobes; type: cell-based
[35] = test system: Porphyromonas asaccharolytica; test: Agar dilution MIC, anaerobes; type: cell-based
[36] = test system: P. acnes; test: Agar dilution MIC, anaerobes; type: cell-based; settings: for MIC P. acnes: single isolates, anaerobic agar dilution
[37] = test system: Peptostreptococcus magnum; test: Agar dilution MIC, anaerobes; type: cell-based; settings: for MIC Peptostreptococcus magnum: single isolates, anaerobic agar dilution
[38] = test system: MRSE 879; test: Broth MIC, MRSE 879; type: cell-based
[39] = test system: Peptostreptococcus micros; test: Agar dilution MIC, anaerobes; type: cell-based
[40] = anaerobes, Wilkins Chalgren agar, 48 hour
[41] = single isolates, anaerobic agar dilution, listed as Quin/dal
[42] = single isolates, anaerobic agar dilution
[43] = single isolate, anaerobic agar dilution

## CC(=O)NC[C@H]1CN(c2ccc(N3CCC(N(C)C(=O)c4ccc([N+](=O)[O-])o4)CC3)c(F)c2)C(=O)O1 [Compound No. 44]
[1]; S. aureus
  Geometric Mean of in vitro activity (MIC): 0.11 µg/mL
[1]; S. aureus, Number 8
  MIC50: 0.064 µg/mL (≈ 0.127 µM)
  MIC90: 0.25 µg/mL (≈ 0.497 µM)
[2]
  MIC S. aureus 25923: 0.25 µg/mL (≈ 0.497 µM)
[3]; agar incorporation
  MIC S. pneum AB 34: 2 µg/mL (≈ 3.97 µM)
[4]; agar incorporation
  MIC MRSA 15187: <0.1 µg/mL
[5]; MRSA 562, Table 5
  MIC: <0.1 µg/mL
[5]; agar incorporation, Table 1
  MIC MRSA 562: <0.1 µg/mL
[6]; agar incorporation
  MIC S. pneum 6303: 2 µg/mL (≈ 3.97 µM)
[7]; agar incorporation
  MIC E. faecalis 29212: 0.25 µg/mL (≈ 0.497 µM)
[8]; agar incorporation
  MIC S. pyogenes 19615: 0.5 µg/mL (≈ 0.993 µM)
[9]; PO
  ED50 (mg/kg body weight) PO: >25 mg/kg body weight
[10]
  Agar MIC: <0.1 µg/mL
[11]; G +ve, Number 49
  MIC50: 0.5 µg/mL (≈ 0.993 µM)
  MIC90: 2 µg/mL (≈ 3.97 µM)
[11]; Gram + ve
  Geometric Mean of in vitro activity (MIC): 0.31 µg/mL
[12]; agar incorporation
  MIC MRSA 33: <0.1 µg/mL
[13]; S. pneumoniae
  Geometric Mean of in vitro activity (MIC): 0.96 µg/mL
[13]; S. pneumoniae, Number 19
  MIC50: 1 µg/mL (≈ 1.99 µM)
  MIC90: 2 µg/mL (≈ 3.97 µM)
[14]; agar incorporation
  MIC VRE 6A: <0.1 µg/mL
[15]
  Broth MIC +50% Sheep serum: 0.25 µg/mL
  Broth MIC Normal MH broth: <0.1 µg/mL
[16]; E. faecalis
  Geometric Mean of in vitro activity (MIC): 0.11 µg/mL
[16]; E. faecalis, Number 7
  MIC50: 0.064 µg/mL (≈ 0.127 µM)
  MIC90: 0.25 µg/mL (≈ 0.497 µM)

## CN[C@H](CC(C)C)C(=O)N[C@H]1C(=O)N[C@@H](CC(N)=O)C(=O)N[C@H]2C(=O)N[C@H]3C(=O)N[C@H](C(=O)N[C@H](C(=O)O)c4cc(O)cc(O)c4-c4cc3ccc4O)[C@H](O)c3ccc(c(Cl)c3)Oc3cc2cc(c3O[C@@H]2O[C@H](CO)[C@@H](O)[C@H](O)[C@H]2O[C@H]2C[C@](C)(N)[C@H](O)[C@H](C)O2)Oc2ccc(cc2Cl)[C@H]1O [Vancomycin]
[17]; 48 h
  MIC50: 32 µg/mL (≈ 22.1 µM)
  MIC90: 32 µg/mL (≈ 22.1 µM)
[17]; anaerobes
  Geometric Mean: 9.306 µg/mL
  MIC Range: 0.5 to 32 µg/mL
[1]; Staphylococcus aureus
  MIC50: 1 µg/mL (≈ 0.69 µM)
  MIC90: 1 µg/mL (≈ 0.69 µM)
[18]; read-out: MIC Prevotella (Bacteroides) disiens
  MIC: > 16 µg/mL
[3]; Streptococcus pneumoniae, AB34, read-out: MIC S. pneum AB 34
  MIC: 0.25 µg/mL (≈ 0.173 µM)
[19]; Anaerococcus tetradius, read-out: MIC Peptostreptococcus tetradius
  MIC: 1 µg/mL (≈ 0.69 µM)
[20]
  concentration which would kill adherent bacteria: 8 µg/mL
[21]; Clostridioides difficile, read-out: MIC Clostridium difficile, single isolates, anaerobic agar dilution
  MIC: 2 µg/mL (≈ 1.38 µM)
[21]
  MIC Clostridium difficile: 4 µg/mL (≈ 2.76 µM)
[22]; Clostridium, read-out: MIC Clostridium camis
  MIC: 2 µg/mL (≈ 1.38 µM)
[23]; Eubacterium, read-out: MIC Eubacterium leutum
  MIC: 1 µg/mL (≈ 0.69 µM)
[24]; Prevotella bivia, read-out: MIC Prevotella bivia
  MIC: > 16 µg/mL
[4]; Staphylococcus aureus, MRSA, read-out: MIC MRSA 15187
  MIC: 0.5 µg/mL (≈ 0.345 µM)
[25]; Prevotella intermedia, read-out: MIC Prevotella intermedia
  MIC: > 16 µg/mL
[5]; Staphylococcus aureus, MRSA
  MIC: 0.5 µg/mL (≈ 0.345 µM)
[5]; Staphylococcus aureus, MRSA, read-out: MIC MRSA 562
  MIC: 0.5 µg/mL (≈ 0.345 µM)
[26]; Porphyromonas gingivalis, read-out: MIC Porphyromonas gingivalis
  MIC: 8 µg/mL (≈ 5.52 µM)
[27]; Clostridium perfringens, read-out: MIC Clostridium perfringens
  MIC: 0.5 µg/mL (≈ 0.345 µM)
[6]; Streptococcus pneumoniae, ATCC6303, read-out: MIC S. pneum 6303
  MIC: 0.5 µg/mL (≈ 0.345 µM)
[28]; Anaerococcus prevotii, read-out: MIC Peptostreptococcus prevotii
  MIC: 0.125 µg/mL (≈ 0.0863 µM)
[29]; Fusobacterium necrogenes, read-out: MIC Fusobacterium necrogenes
  MIC: > 16 µg/mL
[7]; Enterococcus faecalis, ATCC29212, read-out: MIC E. faecalis 29212
  MIC: 4 µg/mL (≈ 2.76 µM)
[8]; Streptococcus pyogenes, ATCC19615, read-out: MIC S. pyogenes 19615
  MIC: 0.5 µg/mL (≈ 0.345 µM)
[9]; IV
  ED50 (mg/kg body weight): 8.84 (IV) mg/kg body weight
[30]
  MIC: > 16 µg/mL
[10]
  Agar MIC: 1 µg/mL
[31]; Bacteroides fragilis, read-out: MIC Bacteroides fragilis
  MIC: > 16 µg/mL
[11]
  MIC50: 0.5 µg/mL (≈ 0.345 µM)
  MIC90: 16 µg/mL (≈ 11 µM)
[12]; Staphylococcus aureus, MRSA, read-out: MIC MRSA 33
  MIC: 0.5 µg/mL (≈ 0.345 µM)
[32]; Fusobacterium, read-out: MIC Fusobacterium montiferum
  MIC: > 16 µg/mL
[33]; Prevotella melaninogenica, read-out: MIC Prevotella melaninogenica
  MIC: > 16 µg/mL
[34]; Fusobacterium varium, read-out: MIC Fusobacterium varium
  MIC: > 16 µg/mL
[13]; Streptococcus pneumoniae
  MIC50: 0.5 µg/mL (≈ 0.345 µM)
  MIC90: 0.5 µg/mL (≈ 0.345 µM)
[13]; Streptococcus pneumoniae, read-out: Geometric Mean of in vitro activity (MIC)
  MIC: 0.39 µg/mL (≈ 0.269 µM)
[35]; Porphyromonas asaccharolytica, read-out: MIC Porphyromonas asaccharolytica
  MIC: 2 µg/mL (≈ 1.38 µM)
[36]; Cutibacterium acnes, read-out: MIC P. acnes, single isolates, anaerobic agar dilution
  MIC: 0.5 µg/mL (≈ 0.345 µM)
[36]
  MIC P. acnes: 1 µg/mL (≈ 0.69 µM)
[37]; Peptostreptococcus, read-out: MIC Peptostreptococcus magnum, single isolates, anaerobic agar dilution
  MIC: 0.5 µg/mL (≈ 0.345 µM)
[37]
  MIC Peptostreptococcus magnum: 0.25 µg/mL (≈ 0.173 µM)
[14]; Enterococcus, VRE, read-out: MIC VRE 6A
  MIC: > 16 µg/mL
[15]
  Broth MIC +50% Sheep serum: 1 µg/mL
  Broth MIC Normal MH broth: 1 µg/mL
[38]; Staphylococcus epidermidis, MRSE, read-out: broth MIC
  MIC: 1 µg/mL (≈ 0.69 µM)
[39]; Parvimonas micra, read-out: MIC Peptostreptococcus micros
  MIC: 1 µg/mL (≈ 0.69 µM)
[16]; Enterococcus faecalis
  MIC50: 16 µg/mL (≈ 11 µM)
  MIC90: 16 µg/mL (≈ 11 µM)

## Synercid
[17]; anaerobes
  Geometric Mean: 1.614 µg/mL
  MIC Range: 0.062 to 16 µg/mL
[17]; [40]
  MIC50: 1 µg/mL
  MIC90: 16 µg/mL
[18]; [41]
  MIC Prevotella (Bacteroides) disiens: >8 µg/mL and 8 µg/mL
[19]; [42]
  MIC Peptostreptococcus tetradius: 1 µg/mL
[20]
  concentration which would kill adherent bacteria: 2 µg/mL
[21]
  MIC Clostridium difficile: 0.5 µg/mL
[22]; [42]
  MIC Clostridium camis: 0.5 µg/mL
[23]; [42]
  MIC Eubacterium leutum: 0.25 µg/mL
[24]; [43]
  MIC Prevotella bivia: 2 µg/mL
[25]; [42]
  MIC Prevotella intermedia: 0.25 µg/mL
[26]; [43]
  MIC Porphyromonas gingivalis: 0.25 µg/mL
[27]; [42]
  MIC Clostridium perfringens: 0.5 µg/mL
[28]; [42]
  MIC Peptostreptococcus prevotii: 0.25 µg/mL
[29]; [43]
  MIC Fusobacterium necrogenes: 0.25 µg/mL
[31]; [41]
  MIC Bacteroides fragilis: 8 µg/mL and >8 µg/mL
[32]; [41]
  MIC Fusobacterium montiferum: 8 µg/mL and >8 µg/mL and 4 µg/mL
[33]; [41]
  MIC Prevotella melaninogenica: 1 µg/mL and 2 µg/mL
[34]; [42]
  MIC Fusobacterium varium: >8 µg/mL
[35]; [43]
  MIC Porphyromonas asaccharolytica: <=.125 μg/ml
[36]
  MIC P. acnes: <=.125 μg/ml
[37]
  MIC Peptostreptococcus magnum: 0.25 µg/mL
[38]; MRSE 879
  broth MIC: 0.5 µg/mL
[39]; [41]
  MIC Peptostreptococcus micros: 0.5 µg/mL and 1 µg/mL
